Molecules are shown by their SMILES. Where only a bound is given, the exact number is not on record here.

In the test the target is T1, human Cereblon WT GST-tagged protein (Homo sapiens, UniProt Q96SW2).
T1 construct: purchased CISBIO 64BDCRBNPEH
T1 sequence (Q96SW2 whole entry): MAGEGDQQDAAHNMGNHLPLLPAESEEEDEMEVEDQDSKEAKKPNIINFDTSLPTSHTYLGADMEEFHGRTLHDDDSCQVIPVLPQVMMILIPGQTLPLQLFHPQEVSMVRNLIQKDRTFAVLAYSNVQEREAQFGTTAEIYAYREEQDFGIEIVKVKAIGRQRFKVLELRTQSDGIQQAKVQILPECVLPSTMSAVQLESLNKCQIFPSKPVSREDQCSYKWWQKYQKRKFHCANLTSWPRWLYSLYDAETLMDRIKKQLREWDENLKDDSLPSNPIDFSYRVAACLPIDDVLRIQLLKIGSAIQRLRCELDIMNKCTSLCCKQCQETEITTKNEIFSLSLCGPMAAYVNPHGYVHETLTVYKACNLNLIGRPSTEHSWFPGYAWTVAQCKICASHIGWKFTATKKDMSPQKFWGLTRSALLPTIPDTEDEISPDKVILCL
In words: CRBN binding, HTRF CEREBLON BINDING kit. The following applies: CRBN binding, HTRF CEREBLON BINDING kit. The essentials: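 Binding inhibition was calculated from the 665/620 nm emission ratios, with blank wells and solvent wells as references. Test compounds competed for GST-tagged human Cereblon WT against a Thalidomide-Re reagent paired with GST Eu antibody. Plates were sealed and held at room temperature for 3 hours before the HTRF read.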
As for `CN(Cc1cccc(N2CCC(=O)NC2=O)c1)C1CCN(c2ccc(-c3cc(F)c4c(c3)C(=O)N(C(C(=O)Nc3nccs3)c3ncn5c3CCC5)C4)cc2)CC1` (centres unmarked) [GT-05281, 2-(6,7-dihydro-5H-pyrrolo[1,2-c]imidazol-1-yl)-2-(6-(4-(4-((3-(2,4-dioxotetrahydropyrimidin-1(2H)-yl)benzyl)(methyl)amino)piperidin-1-yl)phenyl)-4-fluoro-1-oxoisoindolin-2-yl)-N-(thiazol-2-yl)acetamide], the IC50 was < 500 nM. The figure for `CN(Cc1ccc(N2CCC(=O)NC2=O)cn1)C1CCN(c2ccc(-c3cc(F)c4c(c3)C(=O)N(C(C(=O)Nc3nccs3)c3ncn5c3CCC5)C4)cc2)CC1` (centres unmarked) [GT-05282, 2-(6,7-dihydro-5H-pyrrolo[1,2-c]imidazol-1-yl)-2-(6-(4-(4-(((5-(2,4-dioxotetrahydropyrimidin-1(2H)-yl)pyridin-2-yl)methyl)(methyl)amino)piperidin-1-yl)phenyl)-4-fluoro-1-oxoisoindolin-2-yl)-N-(thiazol-2-yl)acetamide] is 500 to 1000 nM; for `CN(Cc1ccc(N2CCC(=O)NC2=O)nc1)C1CCN(c2ccc(-c3cc(F)c4c(c3)C(=O)N(C(C(=O)Nc3nccs3)c3ncn5c3CCC5)C4)cc2)CC1` (centres unmarked) [GT-05283, 2-(6,7-dihydro-5H-pyrrolo[1,2-c]imidazol-1-yl)-2-(6-(4-(4-(((6-(2,4-dioxotetrahydropyrimidin-1(2H)-yl)pyridin-3-yl)methyl)(methyl)amino)piperidin-1-yl)phenyl)-4-fluoro-1-oxoisoindolin-2-yl)-N-(thiazol-2-yl)acetamide] it is 1000 to 1900 nM; for `CN(Cc1cccc(NC2CCC(=O)NC2=O)c1)C1CCN(c2ccc(-c3cc(F)c4c(c3)C(=O)N(C(C(=O)Nc3nccs3)c3ncn5c3CCC5)C4)cc2)CC1` (centres unmarked) [GT-05284, 2-(6,7-dihydro-5H-pyrrolo[1,2-c]imidazol-1-yl)-2-(6-(4-(4-((3-((2,6-dioxopiperidin-3-yl)amino)benzyl)(methyl)amino)piperidin-1-yl)phenyl)-4-fluoro-1-oxoisoindolin-2-yl)-N-(thiazol-2-yl)acetamide] it is < 500 nM. Consider `CC(C)(O)c1cc2nn(C3CCN(Cc4ccc(C5CCC(=O)NC5=O)cc4)CC3)cc2cc1NC(=O)c1cccc(C(F)(F)F)n1` (centres unmarked) [GT-05753, N-(2-(1-(4-(2,6-dioxopiperidin-3-yl)benzyl)piperidin-4-yl)-6-(2-hydroxypropan-2-yl)-2H-indazol-5-yl)-6-(trifluoromethyl)picolinamide], for which the IC50 fell in the range of 500 to 1000 nM. In the case of `CC(C)(O)c1cc2nn(C3CCN(Cc4ccc(N5CCC(=O)NC5=O)cc4)CC3)cc2cc1NC(=O)c1cccc(C(F)(F)F)n1` [GT-05754, N-(2-(1-(4-(2,4-dioxotetrahydropyrimidin-1(2H)-yl)benzyl)piperidin-4-yl)-6-(2-hydroxypropan-2-yl)-2H-indazol-5-yl)-6-(trifluoromethyl)picolinamide], the IC50 lay in the range of 500 to 1000 nM. `CC(C)(O)c1cc2nn(C3CCN(Cc4cccc(N5CCC(=O)NC5=O)c4)CC3)cc2cc1NC(=O)c1cccc(C(F)(F)F)n1` [GT-05755, N-(2-(1-(3-(2,4-dioxotetrahydropyrimidin-1(2H)-yl)benzyl)piperidin-4-yl)-6-(2-hydroxypropan-2-yl)-2H-indazol-5-yl)-6-(trifluoromethyl)picolinamide] registered an IC50 of 500 to 1000 nM.

The compound `CC(C)(O)c1cc2nn(C3CCN(Cc4ccc(N5CCC(=O)NC5=O)cn4)CC3)cc2cc1NC(=O)c1cccc(C(F)(F)F)n1` [GT-05756, N-(2-(1-((5-(2,4-dioxotetrahydropyrimidin-1(2H)-yl)pyridin-2-yl)methyl)piperidin-4-yl)-6-(2-hydroxypropan-2-yl)-2H-indazol-5-yl)-6-(trifluoromethyl)picolinamide] gave an IC50 of 500 to 1000 nM.

`CC(C)(O)c1cc2nc(C3CCN(Cc4cccc(N5CCC(=O)NC5=O)c4)CC3)sc2cc1NC(=O)c1cccc(C(F)(F)F)n1` [GT-05765, N-(2-(1-(3-(2,4-dioxotetrahydropyrimidin-1(2H)-yl)benzyl)piperidin-4-yl)-5-(2-hydroxypropan-2-yl)benzo[d]thiazol-6-yl)-6-(trifluoromethyl)picolinamide] came in with an IC50 of 500 to 1000 nM. In the case of `CC(C)(O)c1cc2nc(C3CCN(Cc4ccc(N5CCC(=O)NC5=O)cc4)CC3)oc2cc1NC(=O)c1cccc(C(F)(F)F)n1` [GT-05772, N-(2-(1-(4-(2,4-dioxotetrahydropyrimidin-1(2H)-yl)benzyl)piperidin-4-yl)-5-(2-hydroxypropan-2-yl)benzo[d]oxazol-6-yl)-6-(trifluoromethyl)picolinamide], the IC50 was 1000 to 1900 nM. For `CC(C)(O)c1cc2nc(C3CCN(Cc4cccc(N5CCC(=O)NC5=O)c4)CC3)oc2cc1NC(=O)c1cccc(C(F)(F)F)n1` [GT-05773, N-(2-(1-(3-(2,4-dioxotetrahydropyrimidin-1(2H)-yl)benzyl)piperidin-4-yl)-5-(2-hydroxypropan-2-yl)benzo[d]oxazol-6-yl)-6-(trifluoromethyl)picolinamide], the IC50 lay within 500 to 1000 nM. Then `CC(C)(O)c1cc2nc(C3CCN(Cc4ccc(N5CCC(=O)NC5=O)cn4)CC3)oc2cc1NC(=O)c1cccc(C(F)(F)F)n1` [GT-05774, N-(2-(1-((5-(2,4-dioxotetrahydropyrimidin-1(2H)-yl)pyridin-2-yl)methyl)piperidin-4-yl)-5-(2-hydroxypropan-2-yl)benzo[d]oxazol-6-yl)-6-(trifluoromethyl)picolinamide], with 1000 to 1900 nM; and `O=C1CCN(c2ccc(CN3CCC(n4cc(NC(=O)c5cnn6ccc(N7CCOCC7)nc56)c(C(F)F)n4)CC3)cc2)C(=O)N1` [GT-05798, N-(3-(difluoromethyl)-1-(1-(4-(2,4-dioxotetrahydropyrimidin-1(2H)-yl)benzyl)piperidin-4-yl)-1H-pyrazol-4-yl)-5-morpholinopyrazolo[1,5-a]pyrimidine-3-carboxamide], with < 500 nM. Then `O=C1CCN(c2ccc(CN3CCC(n4cc(NC(=O)c5cnn6ccc(N7CCOCC7)nc56)c(C(F)F)n4)CC3)nc2)C(=O)N1` [GT-05799, N-(3-(difluoromethyl)-1-(1-((5-(2,4-dioxotetrahydropyrimidin-1(2H)-yl)pyridin-2-yl)methyl)piperidin-4-yl)-1H-pyrazol-4-yl)-5-morpholinopyrazolo[1,5-a]pyrimidine-3-carboxamide], with < 500 nM. The figure for `O=C1CCC(Nc2cccc(CN3CCC(n4cc(NC(=O)c5cnn6ccc(N7CCOCC7)nc56)c(C(F)F)n4)CC3)c2)C(=O)N1` (centres unmarked) [GT-05801, N-(3-(difluoromethyl)-1-(1-(3-((2,6-dioxopiperidin-3-yl)amino)benzyl)piperidin-4-yl)-1H-pyrazol-4-yl)-5-morpholinopyrazolo[1,5-a]pyrimidine-3-carboxamide] is 500 to 1000 nM. `Cc1cc(-c2nc(C(=O)Nc3cc4oc(N5CCN(Cc6ccc(N7CCC(=O)NC7=O)cc6)CC5)nc4nc3N3CC[C@@H](O)C3)co2)ccn1` [GT-05807, (R)—N-(2-(4-(4-(2,4-dioxotetrahydropyrimidin-1(2H)-yl)benzyl)piperazin-1-yl)-5-(3-hydroxypyrrolidin-1-yl)oxazolo[4,5-b]pyridin-6-yl)-2-(2-methylpyridin-4-yl)oxazole-4-carboxamide] returned an IC50 of 500 to 1000 nM. The figure for `Cc1cc(-c2nc(C(=O)Nc3cc4oc(N5CCN(Cc6cccc(N7CCC(=O)NC7=O)c6)CC5)nc4nc3N3CC[C@@H](O)C3)co2)ccn1` [GT-05808, (R)—N-(2-(4-(3-(2,4-dioxotetrahydropyrimidin-1(2H)-yl)benzyl)piperazin-1-yl)-5-(3-hydroxypyrrolidin-1-yl)oxazolo[4,5-b]pyridin-6-yl)-2-(2-methylpyridin-4-yl)oxazole-4-carboxamide] is 500 to 1000 nM.

In turn, `O=C1CCN(c2cccc(CN3CCN(c4ccc(Nc5ncc6nc(Nc7ccccc7)n(C7CCCC7)c6n5)cc4)CC3)c2)C(=O)N1` [GT-05838, 1-(3-((4-(4-((9-cyclopentyl-8-(phenylamino)-9H-purin-2-yl)amino)phenyl)piperazin-1-yl)methyl)phenyl)dihydropyrimidine-2,4(1H,3H)-dione] returned an IC50 of 500 to 1000 nM.

Consider `O=C1CCN(c2ccc(CN3CCN(c4ccc(Nc5ncc6nc(Nc7ccccc7)n(C7CCCC7)c6n5)cc4)CC3)nc2)C(=O)N1` [GT-05839, 1-(6-((4-(4-((9-cyclopentyl-8-(phenylamino)-9H-purin-2-yl)amino)phenyl)piperazin-1-yl)methyl)pyridin-3-yl)dihydropyrimidine-2,4(1H,3H)-dione], for which the IC50 was 500 to 1000 nM.

With `O=C1CCC(Nc2cccc(CN3CCN(c4ccc(Nc5ncc6nc(Nc7ccccc7)n(C7CCCC7)c6n5)cc4)CC3)c2)C(=O)N1` (centres unmarked) [GT-05841, 3-((3-((4-(4-((9-cyclopentyl-8-(phenylamino)-9H-purin-2-yl)amino)phenyl)piperazin-1-yl)methyl)phenyl)amino)piperidine-2,6-dione], the IC50 is < 500 nM.

`CN(Cc1cccc(N2CCC(=O)NC2=O)c1)C1CCN(c2ccc(Nc3ncc4nc(Nc5ccccc5)n(C5CCCC5)c4n3)cc2)CC1` [GT-05870, 1-(3-(((1-(4-((9-cyclopentyl-8-(phenylamino)-9H-purin-2-yl)amino)phenyl)piperidin-4-yl)(methyl)amino)methyl)phenyl)dihydropyrimidine-2,4(1H,3H)-dione] showed an IC50 of 500 to 1000 nM. Then `O=C1CCC(c2ccc(CN3CCN(C4CCN(c5ccc(Nc6ncc7nc(Nc8ccccc8)n(C8CCCC8)c7n6)cc5)CC4)CC3)cc2)C(=O)N1` (centres unmarked) [GT-05915, 3-(4-((4-(1-(4-((9-cyclopentyl-8-(phenylamino)-9H-purin-2-yl)amino)phenyl)piperidin-4-yl)piperazin-1-yl)methyl)phenyl)piperidine-2,6-dione], with < 500 nM; and `O=C1CCN(c2ccc(CN3CCN(C4CCN(c5ccc(Nc6ncc7nc(Nc8ccccc8)n(C8CCCC8)c7n6)cc5)CC4)CC3)cc2)C(=O)N1` [GT-05917, 1-(4-((4-(1-(4-((9-cyclopentyl-8-(phenylamino)-9H-purin-2-yl)amino)phenyl)piperidin-4-yl)piperazin-1-yl)methyl)phenyl)dihydropyrimidine-2,4(1H,3H)-dione], with 500 to 1000 nM.

The record behind these values is patent publication US20260274829A1, “NEW E3 UBIQUITIN LIGASE LIGAND, PROTEIN DEGRADATION AGENT AND USE THEREOF” (GLUETACS THERAPEUTICS (SHANGHAI) CO., LTD., priority 2023, published 2026).
